Tests used:
nNOS = nNOS immunohistochemistry of retinal whole mounts 3 hours after intravitreal injection; type: in vivo, guinea pig (Cavia porcellus)
Method: Two experimental protocols were used. In Experiment 1, young guinea pigs were randomly divided into three drug treatment groups: no injection (n=14), vehicle (n=14) and 0.2 mM L-arginine (n=16). Animals in the latter two groups received a daily 10 μl intravitreal injection in one eye at 7, 8 and 9 days of age (Table 2). […] The fellow eye was untreated. At 10 days of age, the −6D lens was removed, animals were cyclopleged and refractive error was measured in both eyes. In Experiment 2, sixteen guinea pigs received an intravitreal injection of either vehicle (n=8) or 0.2 mM L-arginine (n=8) into their untreated eye at 16 days of age (Table 2). Injections were made 1 hour after the beginning of their 12 hr light cycle. 3 hours after injection, light adapted animals were euthanized, and the injected eye removed and processed using immunohistochemistry.
To make the L-arginine (LA), 217.75 mg of LA (Sigma, A5006) was added to 10 ml of isotonic saline (Pfizer) to create 125 mM fresh stock each day. Hydrochloric acid was used to lower the stock to a pH of 7.4. The stock was diluted with isotonic saline to produce a final dose of 0.185 mM of LA (˜0.2 mM) at the level of the retina based on a vitreous volume of 125 μl and an injection volume of 10 μl. Vehicle injections consisted of 10 μl of isotonic saline (pH 7.4).
Guinea pigs were briefly anaesthetised with isoflurane in oxygen and intravitreal injections were made through the pars plana ˜1 mm posterior to the limbus at an angle of approximately 40° to avoid contact with the crystalline lens and retina. Drugs were delivered using a 0.3 ml syringe (Diabetic BD UltraFine II) with a 31 gauge needle. After the injection, antibiotic gel (Conoptal) was applied lightly to the cornea, and animals recovered rapidly in a warm darkened box.
In Experiment 2, three hours after their intravitreal injection, animals were anaesthetised with isoflurane in oxygen and then euthanized with an […] injection of sodium pentobarbitone (160 mg/kg; Lethabarb) into the heart. The eye that had received treatment was then enucleated. […]

[1] = system: guinea pig eyes not form deprived; assay: Intravitreal L-arginine in eyes not form deprived (control groups of Example 2); type: in vivo, guinea pig (Cavia porcellus); details: 2.2 mM L-arginine vs vehicle, no FD
Excerpt: Animals were assigned to one of seven treatment groups (Table 1). From seven days of age, five of these groups were form deprived in the right eye for 3 days with a diffuser (two groups wore no diffusers and served as controls for form deprived animals). Six groups of animals were intravitreally injected with either L-arginine or physiological saline once per day, just before lights came on at 10 am. One group wore diffusers, but received no injection as a control. At ten days of age, cycloplegia was induced in all animals and refractive error and ocular components were measured. Two retinas, one a saline control and another that had been injected with the highest dose of L-arginine, were analysed by histochemistry for morphological markers of L-arginine induced toxicity.
To establish the size of the guinea pig vitreous, and thus the molarity of the substrate within the eye, ten vitreous chambers were extracted from ten eyes. The volume of the vitreous was 125 μl. Based on this, three drug doses of L-arginine were employed: low (0.4 mM), medium (2.2 mM) and high (non-toxic: 9.3 mM) (See Table 1). […]
Cycloplegia was induced as described in Example 1, and refractive error subsequently measured as described in Example 1.
Ocular length and axial components were also determined as described in Example 1. […]

## N=C(N)NCCC[C@H](N)C(=O)O [L-arginine]
nNOS; single intravitreal 0.2 mM L-arginine, 3 hours after injection, each eccentricity from the optic nerve, p<0.001
  density of NOS displaced amacrine cells (DACs) vs vehicle injected eyes: significantly higher density
nNOS; single intravitreal 0.2 mM L-arginine, 3 hours after injection, p<0.001
  density of Type I amacrine cells expressing nNOS vs vehicle injected group: significantly higher density
nNOS; single intravitreal injection of L-arginine (0.2 mM)
  increase of expression of nNOS in the retina: approximately 20%
[1]; daily 10 μl intravitreal injection for 3 days, p=0.46
  difference in relative refractive error between the two groups that were not form deprived: −0.2 D
[1]; intravitreal, p=0.44
  difference in ocular length between groups not form deprived: 83 μm

Source: patent publication US10945980B2, “Treatment for myopia” (The University of Newcastle, priority 2016, dated 2021)
